The values that follow come from PMC6193465 (Journal of the American Chemical Society, 2018).

For data set [1], the system named is prokaryotic protein synthesis. Nature of the data set: in vitro transcription-translation assay. The class given is biochemical. As to conditions: read-out: half-maximum inhibitory concentration, inhibition of prokaryotic protein synthesis.
Data set [2] has as its system indicator bacterial strains. The experiment in a line: antibacterial activity, minimum inhibitory concentrations. The class given is cell-based. As to conditions: range over the strains tested (Table S5).
Data set [3] is described as follows: aqueous solubility. The class given is physicochemical.
The conditions of data set [4]: comparison value for 1; cited from earlier work.

Read-outs that look alike come from different tables or passages of the source. Where no end group is shown, it is not given here.

thiostrepton Aa [compound 7]: the IC50 in data set [1] was 260 ± 40 nM. Moreover, the results for the minimum inhibitory concentrations in data set [2] and in data set [2] (in molar units) were 0.018 to 0.098 µg/mL and 0.010 to 0.058 µM, respectively. For the same substance, the aqueous solubility (usually the dissolved amount per volume that the medium holds) in data set [3] was 26.01 ± 0.05 µM.
As to “IASASCTTCICTCSCSS (also: bicyclic or more (positions not given here)) [compound 1, thiostrepton A, reference compound]”, the IC50 in data set [1] was 500 ± 40 nM. Besides, in data set [4], the aqueous solubility was 21.88 ± 0.05 µM.
